{"source": "patent US20250228851A1", "about": "“ALLOSTERIC INHIBITOR COMPOUNDS FOR OVERCOMING CANCER RESISTANCE” (priority 2021, published 2025)", "key": {"WT-Ba/F3": {"test_system": "WT-Ba/F3", "experiment": "Proliferation by trypan blue exclusion, WT-Ba/F3", "assay_type": "cell-based, murine", "conditions": "WT-Ba/F3, 1.0, 2.0 and 5.0 μM", "experimental": "• 1. Ba/F3 cells were obtained from the German Collection of Microorganisms and Cell Cultures (DSMZ, Braunschweig, Germany) and maintained in RPMI 1640 medium supplemented with 10% fetal calf serum (Invitrogen) containing 10 ng/ml of interleukin-3 (Cell Concepts, Umkirch, Germany). Ecotropic Phoenix cells and Rat-1 cells were cultured in Dulbecco's modified Eagle's medium supplemented with 10% fetal calf serum. GNF-2 (Sigma-Adrich, Steinheim, Germany) was dissolved in dimethyl sulfoxide and added at a final concentration of […]. Cell growth was assessed by dye exclusion using Trypan blue. Proliferation was assessed using the XTT proliferation kit (Roche, Mannheim, Germany), according to the manufacturer's instructions. • 2. Ba/F3: IL-3 dependent lymphatic murine pro B cell line. […]\nFIGS. 4A and 4B. […] All cell lines were treated with the indicated concentrations of Compound 16 for total period of five days and proliferation was determined by trypan blue exclusion of viable cells. […] For factor-independent growth, the number of viable cells was determined at day 3 by trypan blue dye exclusion."}, "[1]": {"test_system": "BV173 cells (p210-BCR-ABL)", "experiment": "XTT cell viability, BV173", "assay_type": "cell-based, human", "experimental": "FIG. 2: Effect of Compound 16 on leukemia cell lines (Jurkat, Sup-B15 and BV173). Cell viablility (CV) was determined following incubation of the 1 m cells/ml of each cell line with increasing concentration of the Compound 16 [empty vehicle (0.0 μM+IL3), 2.5, 5.0 and 10.0 μM]. CV was measured by the XTT method. The means±SD of triplicates from one representative experiment out of three performed are given.\nEffect of Compound 16 on […] Jurkat (immortalized T lymphocytes derived from the peripheral blood of a child suffering from leukemia. Jurkat cells are often used to study acute T cell leukemia, T cell signaling, and the expression of various chemokine receptors in this experiment Jurkat cells are taken as control), Sup-B15 and BV173. Three Ph+ cells were used to assess the effect of Compound 16. Relevant concentration of the compound was added to seeded cells at day 1 (24 hrs) and cytotoxicity and proliferation were assessed at after 24, 48, 72, 96 and 120 h by XTT. The control was cells exposed to empty vehicle (0 μM, green line in each case), 1, 2 and 5 μM concentration of Compound 16 were administered to the three cell lines. […] The means±SD of triplicates from one representative experiment out of three performed are given. It could be concluded that though Compound 16 inhibits Ph+ Sup-B15 and BV173 are responsive towards Compound 16 with the notion that p210-BCR-ABL leukemia cells at lymphoblastic blast crisis stage are quite more sensitive than p185-BCR-ABL ALL cells at corresponding inhibitor concentration.\nFIG. 6: Sensitivity of Sup-B15 (p185-BCR-ABL) compared BV173 cells (p210-BCR-ABL) towards increasing concentration of Compound 16. Ph+ cells were used to assess the effect of Compound 16. To assess the antiproliferative effect, cells were incubated with increasing concentration [0, 2, 4, 6, 8, and 10 μM] of Compound 16 and the viability was assessed using XTT. The means±SD of triplicates from one representative experiment out of three performed are given."}, "BV173": {"test_system": "BV173", "experiment": "Proliferation by dye exclusion after three days, BV173", "assay_type": "cell-based, human", "experimental": "(§1) FIG. 3. […] Cells were exposed to increasing concentration of 2.5, 5 and 10 μM of Compound 16. The negative control cell lines Ph− ALL HP was irresponsive to increasing concentration of Compound 16 (up to 10 μM). […] All four cell lines were plated in duplicates at the indicated concentrations, and proliferation was assessed after three days by dye exclusion of viable cells. […] The sensitivity of Ph+ cells to Compound 16 underlines the involvement of BCR-ABL in the antiproliferative mechanism. Death induction of BV173 cells is well taken as an indication of the ability of such group of compounds to overcome resistance that is originated in non-mutational grounds. However, the ability overcome the resistant T315I-BCR-ABL mutant, as shown in the dose-dependent manner of KÖ (circles), might be indicative for a non-ATP competitive mechanism of action."}, "HP (Ph− ALL cultures)": {"test_system": "HP (Ph− ALL cultures)", "experiment": "Proliferation by dye exclusion after three days, HP", "assay_type": "cell-based, human", "conditions": "HP, 2.5, 5 and 10 μM", "experimental": "as §1"}}}
{"smiles": "COc1ccc(C(=O)N2CCN(c3cc(Nc4ccc(OC(F)(F)F)cc4)ncn3)CC2)cc1OC", "note": "[Compound 16]", "values": [{"measurement": "effect on proliferation (in words)", "setting": "WT-Ba/F3", "value": "without affecting the proliferation"}, {"measurement": "cells wiped", "setting": "[1]; 2.5 μM", "value": "around 100%"}, {"measurement": "IC50", "setting": "[1]; BV173, XTT, estimated", "value": "~2", "unit": "µM"}, {"measurement": "antiproliferative response (in words)", "setting": "[1]; BV173, increasing concentration up to 10 μM", "value": "most sensitive"}, {"measurement": "concentration sufficient to block proliferation", "setting": "[1]; within 24 hours exposure", "value": 1, "unit": "µM"}, {"measurement": "IC50", "setting": "BV173", "value": 2.5, "unit": "µM"}, {"measurement": "response (in words)", "setting": "HP (Ph− ALL cultures)", "value": "irresponsive"}]}
